In publication PMC4098076 (Nature, 2014):

Target: T1, aryl hydrocarbon receptor (AhR) (Mus musculus, UniProt P30561)
T1 sequence (P30561 10-848): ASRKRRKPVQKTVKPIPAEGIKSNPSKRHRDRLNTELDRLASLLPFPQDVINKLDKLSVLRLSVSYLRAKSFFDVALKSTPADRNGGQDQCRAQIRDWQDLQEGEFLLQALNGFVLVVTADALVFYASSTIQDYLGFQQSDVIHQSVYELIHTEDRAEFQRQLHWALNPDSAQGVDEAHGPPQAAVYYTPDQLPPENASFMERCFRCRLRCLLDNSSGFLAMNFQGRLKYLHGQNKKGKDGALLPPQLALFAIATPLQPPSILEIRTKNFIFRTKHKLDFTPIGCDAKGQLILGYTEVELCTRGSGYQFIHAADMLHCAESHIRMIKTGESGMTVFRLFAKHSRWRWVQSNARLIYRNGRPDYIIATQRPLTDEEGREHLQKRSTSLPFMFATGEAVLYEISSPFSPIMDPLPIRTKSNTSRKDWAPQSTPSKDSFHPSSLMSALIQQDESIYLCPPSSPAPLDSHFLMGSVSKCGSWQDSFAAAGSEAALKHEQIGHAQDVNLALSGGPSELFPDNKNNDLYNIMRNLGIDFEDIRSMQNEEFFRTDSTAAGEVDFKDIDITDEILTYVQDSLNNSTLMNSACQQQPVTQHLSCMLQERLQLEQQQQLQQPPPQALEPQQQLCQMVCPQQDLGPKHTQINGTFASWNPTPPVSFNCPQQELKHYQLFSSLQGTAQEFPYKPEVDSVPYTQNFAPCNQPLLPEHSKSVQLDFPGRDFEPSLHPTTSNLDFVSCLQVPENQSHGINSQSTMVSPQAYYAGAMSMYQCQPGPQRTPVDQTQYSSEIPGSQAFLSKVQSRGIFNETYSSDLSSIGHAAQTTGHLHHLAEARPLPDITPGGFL
Test: radioligand competition with [3H]TCDD
Assay type: binding

Work on `Nc1ccccc1C(=O)C[C@H](N)C(=O)O` [L-kynurenine] yielded a Ki of 21.6 µM.
